PubChem BioAssay AID2060495 (Molecular Pharmacology Branch, DTP, NCI, 2025)

System: 521955-158-R2-J5-PDC complex spheroid viability
Test: Anticancer human tumor 521955-158-R2-J5-PDC patient-derived pancreatic carcinoma cell line growth inhibition [GQUAD]
Details: for IC50: curve of first compound; for viability, T/C: stronger effect = lower value
Summary of the method: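 Tumor cells were grown as complex spheroids with HUVEC endothelial cells and mesenchymal stem cells as stroma. G-quadruplex stabilizers were combined with targeted agents over half-log dilutions from near the clinical Cmax, or from 10 microM.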
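Further: spheroids exposed to agents for one week before reading.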
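Wherever viability, T/C is given: 100% = DMSO vehicle control viability.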

Structure (SMILES): Nc1ccn(C2OC(CO)C(O)C2(F)F)c(=O)n1 (configuration not stated) + CN(C)c1ccc(Nc2c3ccc(NC(=O)CCN4CCCC4)cc3nc3cc(NC(=O)CCN4CCCC4)ccc23)cc1
- IC50 (second compound 0.0316 µM): 774 nM
- IC50 (second compound 0.1 µM): 423 nM
- IC50 (second compound 0.316 µM): 434 nM
- IC50 (second compound 1 µM): 394 nM
- IC50 (second compound 3.16 µM): 157 nM
- IC50 (second compound 10 µM): 83 nM
- viability, T/C (second compound 0.0316 µM, first compound 0.0316 µM): 76.5%
- viability, T/C (second compound 0.0316 µM, first compound 0.1 µM): 73.5%
- viability, T/C (second compound 0.0316 µM, first compound 0.316 µM): 66%
- viability, T/C (second compound 0.0316 µM, first compound 1 µM): 45.1%
- viability, T/C (second compound 0.0316 µM, first compound 3.16 µM): 24.1%
- viability, T/C (second compound 0.0316 µM, first compound 10 µM): 12.6%
- viability, T/C (second compound 0.1 µM, first compound 0.0316 µM): 76.6%
- viability, T/C (second compound 0.1 µM, first compound 0.1 µM): 76.5%
- viability, T/C (second compound 0.1 µM, first compound 0.316 µM): 54.5%
- viability, T/C (second compound 0.1 µM, first compound 1 µM): 32.3%
- viability, T/C (second compound 0.1 µM, first compound 3.16 µM): 19.5%
- viability, T/C (second compound 0.1 µM, first compound 10 µM): 14.7%
- viability, T/C (second compound 0.316 µM, first compound 0.0316 µM): 65.2%
- viability, T/C (second compound 0.316 µM, first compound 0.1 µM): 66.7%
- viability, T/C (second compound 0.316 µM, first compound 0.316 µM): 56.9%
- viability, T/C (second compound 0.316 µM, first compound 1 µM): 31.1%
- viability, T/C (second compound 0.316 µM, first compound 3.16 µM): 17.1%
- viability, T/C (second compound 0.316 µM, first compound 10 µM): 14.2%
- viability, T/C (second compound 1 µM, first compound 0.0316 µM): 71.7%
- viability, T/C (second compound 1 µM, first compound 0.1 µM): 58.7%
- viability, T/C (second compound 1 µM, first compound 0.316 µM): 57.1%
- viability, T/C (second compound 1 µM, first compound 1 µM): 25.9%
- viability, T/C (second compound 1 µM, first compound 3.16 µM): 12.5%
- viability, T/C (second compound 1 µM, first compound 10 µM): 12%
- viability, T/C (second compound 3.16 µM, first compound 0.0316 µM): 61.6%
- viability, T/C (second compound 3.16 µM, first compound 0.1 µM): 52.8%
- viability, T/C (second compound 3.16 µM, first compound 0.316 µM): 43.2%
- viability, T/C (second compound 3.16 µM, first compound 1 µM): 22.4%
- viability, T/C (second compound 3.16 µM, first compound 3.16 µM): 12.5%
- viability, T/C (second compound 3.16 µM, first compound 10 µM): 11.9%
- viability, T/C (second compound 10 µM, first compound 0.0316 µM): 64.8%
- viability, T/C (second compound 10 µM, first compound 0.1 µM): 39.9%
- viability, T/C (second compound 10 µM, first compound 0.316 µM): 41.1%
- viability, T/C (second compound 10 µM, first compound 1 µM): 27%
- viability, T/C (second compound 10 µM, first compound 3.16 µM): 17.2%
- viability, T/C (second compound 10 µM, first compound 10 µM): 11.6%
